Values quoted from earlier work, collected in patent publication US6794347B2, “Process of making gel detergent compositions” (Unilever Home & Personal Care USA a division of Conopco, …, priority 2002, dated 2004).
Like-named read-outs stand apart in the source and are kept apart here.

Measured pKa value (Cited from Langmuir, Vol 16, pp 172-177, 2000): 8.6˜8.8
Measured pKa value (Cited from Proc. R. Soc. London, A133, 140, 1931): 8.5
SMILES: CCCCCCCCCCCCCCCC(=O)O [Fatty acid chain length 16]
